This is an account of results in US11440916B2, “Selective A2A receptor antagonist” (InxMed (Nanjing) Co., Ltd., priority 2018, dated 2022).

Data set [1] is described as follows: Oral bioavailability, AUC, half-life, plasma, brain and liver concentration in mice at 2 mg/kg. Type of data set: in vivo. Particulars: for AUC(0-t) / half-life / bioavailability: plasma; for bioavailability: read-out: Absolute bioavailability (oral); for Plasma concentration 4 and 6 hours after oral administration: time point not stated. How it is done:
HZ10126 and other test compounds were each administered to mice at a dose of 2 mg/kg, and the bioavailability, AUC, plasma concentration, level of brain penetration (i.e. brain concentration) and liver concentration after the oral administration were measured and shown in Table 1. The measurement methods are well known to a person skilled in the art.

Another data set deals with B16-F10 cells. In words: Mouse melanoma lung metastasis model, oral HZ10126. In kind it is in vivo, mice. How it is done: 4.1 Establishment of a Mouse Melanoma Model (6×10^4 Cells/Mouse)
5-week old C58BL/6N mice, half male and half female, were divided into 4 groups, with 10 mice per group. B16-F10 cells were digested and centrifuged, re-suspended in physiological saline and washed once. The cells were counted and adjusted to a cell density of 30×10^4 cells/ml in a volume of 12 ml. 200 μl of the cell suspension was injected into the tail vain of each mouse (Day 1), and the body weight of mice was recorded once every 3 days. On Day 18, the mice were all sacrificed, lungs were removed, and metastasis tumors were counted and weighed. Livers, kidneys and spleens were taken for HE staining to evaluate the toxicity of the drug. The lungs were subjected to immunohistochemistry and stained for CD11b, F4/80 and CD8.
Test drug: HZ10126. 2 mg HZ10126 was dissolved in 80 μl DMSO first, and the resultant solution, while being vortexed, was added dropwise to 10 ml 50% PEG-400 to prepare a 0.2 mg/ml solution.
For the test groups, the HZ10126 solution was intragastrically administered at a dose of 2 mg HZ10126/kg/day. For the control group, an equivalent volume of 50% PGE-400 was administered. From the day of injection of cells, the drug was administered once a day for 18 consecutive days.

A further data set concerns the target A2A receptor (Homo sapiens, UniProt P29274). Kind of data set: biochemical.
For data set [2] the following is noted: reference [2]; cited from earlier work.
For data set [3] the following is noted: cited from earlier work.
The mark [4] stands for this setting: 2 mg/kg oral, 1 h post administration.
Setting [5] is: 2 mg/kg, 4 h after oral administration.
Where [6] appears, read: 2 mg/kg, 6 h after oral administration.

The structures appear in SMILES notation. “Also recorded” adds a separate entry of the source. Where two headings read alike, the source gives them in different places. Where only a bound is given, the exact number is not on record here.

Protocol for A2A receptor: The mixture in the Opti-plate was transferred to the [sequence]-96 GF/B filter plate, which was then washed 9 times with Washing Buffer (500 μl/well), and incubated at 55° C. for 10 min. […] A series of concentrations were established for each compound and the CPM values were plotted versus the concentrations. IC50 values were calculated from the curve obtained.

In general, Kp refers to tissue or fluid exposure divided by exposure in the circulation. As a reminder, the AUC(0-t) is exposure summed from dosing to a finite time, without extrapolation to infinity. High values mean high exposure, low ones low exposure. The half-life is how long it takes for the measured level to halve. As a reminder, the bioavailability is dose-corrected exposure relative to a reference, in per cent. As a reminder, the IC50 is the concentration that gives 50% inhibition. A higher IC50 goes with weaker potency. In the case of `Nc1nc2c(cnn2CCc2ccc(C(=O)O)cc2)c2nc(-c3ccco3)nn12` [HZ10126], the “Liver concentration/Plasma concentration” value in data set [1] (setting [4]) turned out to be 7. Moreover, the “Liver concentration/Plasma concentration” value in data set [1] (2 mg/kg oral, 6 h post administration) is 24. The “Plasma concentration after oral administration” value in data set [1] (setting [5]) is 52.0 ± 7.03 ng/mL. For the same compound, in data set [1] (setting [6]), the “Plasma concentration after oral administration” value was 28.9 ± 9.79 ng/mL. The Brain penetration entry in data set [1] (2 mg/kg, oral) is reported as “no detectable brain concentration; also recorded: No penetration”. In addition, in data set [1] (mouse, liver/plasma, 2 mg/kg oral, 1 h post administration), the Kp at 1 h turned out to be 7. Besides, the Kp at 6 h in data set [1] (mouse, liver/plasma, 2 mg/kg oral, 6 h post administration) came out at 24. Besides, in data set [1] (mouse, 2 mg/kg, oral), the AUC(0-t) is 371 ± 62.9 ng·h/mL, the half-life was in the range of 4 to 5 h and the bioavailability was found to be 13.4%. The “Metastases on the lungs versus control group” value with B16-F10 cells (Day 18, 2 mg/kg/day intragastric, once a day for 18 days) is “obviously less than those in the control group”. Besides, the “Inhibitory effect on tumor / tumor metastasis” value in the data set on B16-F10 cells (mice, oral 2 mg/kg/day) is recorded as “excellent effect of suppressing tumor metastasis; also recorded: excellent inhibitory effect”. Further, the IC50 against A2A receptor worked out at 1.8 nM.
For `Nc1nc2c(cnn2CCc2ccc(OCC(=O)O)cc2)c2nc(-c3ccco3)nn12` [HZ10136], in data set [1] (setting [4]), the “Liver concentration/Plasma concentration” value is listed as 1 h post administration: 2.3. Besides, the Brain penetration result in data set [1] (2 mg/kg, oral) is on record as “No penetration”. In data set [1] (2 mg/kg), the “Plasma concentration 4 and 6 hours after oral administration” value (“Plasma concentration 4 and 6 hours” below) came out at 2.57 ± 0.10 ng/mL. In data set [1] (mouse, 2 mg/kg, oral), the AUC(0-t) is 7.42 ± 5.66 ng·h/mL, the half-life is less than 0.5 h and the bioavailability is 0.73%. This compound also displayed an IC50 on A2A receptor of 1.1 nM.
`Nc1nc2c(cnn2CCN2CCN(c3ccc(C(=O)O)cc3)CC2)c2nc(-c3ccco3)nn12` [HZ10168]: the “Plasma concentration 4 and 6 hours” value in data set [1] (2 mg/kg) is 4.50 ± 2.53 ng/mL. Also, the AUC(0-t) in data set [1] (mouse, 2 mg/kg, oral) was 93.9 ± 40.8 ng·h/mL. On A2A receptor, this compound registered an IC50 of 1.2 nM.
As for `CCOC(=O)c1ccc(CCn2ncc3c2nc(N)n2nc(-c4ccco4)nc32)cc1` [HZ10328], the “Plasma concentration after oral administration” value in data set [1] (setting [5]) is recorded as 4 h: 24.0 ± 8.02 ng/ml. Moreover, in data set [1] (mouse, 2 mg/kg, oral), the AUC(0-t) came out at 233 ± 73.5 ng·h/mL and the half-life is 3.03 h.
Regarding `Nc1nc2c(cnn2CCc2ccc(CO)cc2)c2nc(-c3ccco3)nn12` [HZ10330], the “Absolute bioavailability (oral)” value in data set [1] (2 mg/kg, oral) is on record as “does not lead to detectable bioavailability”. Further, in data set [1] (2 mg/kg), the “Plasma concentration 4 and 6 hours” value is on record as “Not detected from 1 h after oral administration”. Besides, in data set [1] (mouse, 2 mg/kg, oral), the bioavailability was determined as 0%.
For the compound `COCCOc1ccc(N2CCN(CCn3ncc4c3nc(N)n3nc(-c5ccco5)nc43)CC2)cc1` [Preladenant, reference compound], the “Plasma concentration after oral administration” value in data set [1] (setting [6]) is on record as 6 h: 6.20 ± 7.27 ng/ml. The same compound had an AUC(0-t) in data set [1] (mouse, 2 mg/kg, oral) of 285 ± 113 ng·h/mL. For the same compound, the half-life in data set [2] is on record as 2.1 h. Besides, the IC50 on A2A receptor came out at 2.5 nM.
Turning to `Nc1nc2c(cnn2CCc2ccccc2)c2nc(-c3ccco3)nn12` [SCH 58261], in data set [1] (2 mg/kg), the “Plasma concentration 4 and 6 hours” value is on record as “No significant meaningful concentration”. In data set [1] (mouse, 2 mg/kg, oral), the bioavailability is approximately 0%. Moreover, the half-life result in data set [3] (after intravenous injection, reference [1]) is given as “*26.7 min”. The Oral bioavailability entry in data set [3] (after oral administration) is reported as “barely any oral bioavailability; also recorded: barely has any bioavailability”. In data set [3] (intraperitoneal injection), the Brain concentration entry is listed as “very low brain concentration” and the Plasma concentration entry is “relatively high plasma concentration”. Also, the “Half-life in the blood” value in data set [3] (rats, after intravenous injection) was 0.445 h.
